Data taken from ChEMBL document CHEMBL3390832 (Medchemcomm, 2011).

Assays:
Glutamate NMDA receptor = assay: Displacement of [3H]CGP-39653 from NMDA receptor in rat brain cortical membranes; format: cell membranes
[1] = target: T1, Metabotropic glutamate receptor 3 (Homo sapiens, UniProt Q14832); assay: Agonist activity at human mGluR3 receptor expressed in HEK cells; format: cell-based, HEK293
[2] = target: T1, Metabotropic glutamate receptor 3; assay: Binding affinity to human mGluR3 receptor expressed in HEK cells; format: cell-based, HEK293
[3] = target: T2, G-protein coupled receptor family C group 6 member A (Mus musculus, UniProt Q8K4Z6); assay: Agonist activity at mouse GPRC6A expressed in human tsA201 cells coexpressing GalphaqG66D after 30 mins by inositol phosphate turnover assay; format: functional, cell-based
T2 sequence (Q8K4Z6 whole entry): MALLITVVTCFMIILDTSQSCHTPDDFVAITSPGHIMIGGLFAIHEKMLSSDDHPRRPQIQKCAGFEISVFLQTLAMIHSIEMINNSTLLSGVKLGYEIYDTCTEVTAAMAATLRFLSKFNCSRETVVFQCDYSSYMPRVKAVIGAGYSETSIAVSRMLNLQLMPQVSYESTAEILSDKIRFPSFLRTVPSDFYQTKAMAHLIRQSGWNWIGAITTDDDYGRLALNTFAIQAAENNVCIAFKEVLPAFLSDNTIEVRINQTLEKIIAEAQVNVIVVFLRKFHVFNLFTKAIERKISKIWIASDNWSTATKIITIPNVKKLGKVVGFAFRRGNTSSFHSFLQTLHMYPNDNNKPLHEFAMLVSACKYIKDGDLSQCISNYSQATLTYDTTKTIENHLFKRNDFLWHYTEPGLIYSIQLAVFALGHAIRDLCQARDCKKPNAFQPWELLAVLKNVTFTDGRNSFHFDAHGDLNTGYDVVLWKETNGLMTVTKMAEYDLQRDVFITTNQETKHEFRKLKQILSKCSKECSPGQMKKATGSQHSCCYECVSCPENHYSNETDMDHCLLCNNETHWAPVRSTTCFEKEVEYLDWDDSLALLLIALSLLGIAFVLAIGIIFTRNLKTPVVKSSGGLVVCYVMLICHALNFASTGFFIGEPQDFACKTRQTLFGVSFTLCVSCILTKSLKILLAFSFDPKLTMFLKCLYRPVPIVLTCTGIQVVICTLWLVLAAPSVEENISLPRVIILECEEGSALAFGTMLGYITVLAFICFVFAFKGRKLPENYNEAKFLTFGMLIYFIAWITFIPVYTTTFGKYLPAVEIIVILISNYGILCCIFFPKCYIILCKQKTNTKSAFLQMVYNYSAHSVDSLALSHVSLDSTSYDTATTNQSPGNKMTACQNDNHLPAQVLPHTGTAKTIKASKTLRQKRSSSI

[4] = target: T3, Metabotropic glutamate receptor 7 (Homo sapiens, UniProt Q14831); assay: Agonist activity at human mGluR7 receptor expressed in HEK cells; format: cell-based, HEK293
T3 sequence (Q14831 whole entry): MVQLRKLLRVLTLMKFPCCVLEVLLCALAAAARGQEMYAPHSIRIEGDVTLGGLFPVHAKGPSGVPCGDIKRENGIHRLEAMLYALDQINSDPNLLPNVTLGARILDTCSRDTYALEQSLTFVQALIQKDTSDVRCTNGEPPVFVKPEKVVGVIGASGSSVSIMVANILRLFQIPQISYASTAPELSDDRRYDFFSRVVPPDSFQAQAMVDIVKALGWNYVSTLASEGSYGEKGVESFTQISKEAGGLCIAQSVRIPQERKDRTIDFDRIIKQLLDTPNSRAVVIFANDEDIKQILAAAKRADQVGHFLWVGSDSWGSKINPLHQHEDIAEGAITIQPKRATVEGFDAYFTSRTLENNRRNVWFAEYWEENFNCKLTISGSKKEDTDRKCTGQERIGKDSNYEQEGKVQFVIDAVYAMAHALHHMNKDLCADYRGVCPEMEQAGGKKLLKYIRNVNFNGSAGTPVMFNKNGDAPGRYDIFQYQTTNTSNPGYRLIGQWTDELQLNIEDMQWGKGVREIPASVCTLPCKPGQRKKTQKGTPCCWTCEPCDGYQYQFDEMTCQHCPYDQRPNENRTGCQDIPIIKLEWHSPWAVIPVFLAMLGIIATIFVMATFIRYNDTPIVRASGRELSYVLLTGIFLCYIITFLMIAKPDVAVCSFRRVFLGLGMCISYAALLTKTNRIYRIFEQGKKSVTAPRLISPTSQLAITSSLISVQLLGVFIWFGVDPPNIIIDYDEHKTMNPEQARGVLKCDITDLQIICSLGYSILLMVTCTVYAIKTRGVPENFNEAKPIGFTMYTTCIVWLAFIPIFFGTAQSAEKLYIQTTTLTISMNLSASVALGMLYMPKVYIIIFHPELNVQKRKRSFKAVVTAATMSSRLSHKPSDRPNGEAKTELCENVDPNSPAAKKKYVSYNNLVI

[5] = target: T3, Metabotropic glutamate receptor 7; assay: Binding affinity to human mGluR7 receptor expressed in HEK cells; format: cell-based, HEK293

T1 sequence (Q14832 whole entry): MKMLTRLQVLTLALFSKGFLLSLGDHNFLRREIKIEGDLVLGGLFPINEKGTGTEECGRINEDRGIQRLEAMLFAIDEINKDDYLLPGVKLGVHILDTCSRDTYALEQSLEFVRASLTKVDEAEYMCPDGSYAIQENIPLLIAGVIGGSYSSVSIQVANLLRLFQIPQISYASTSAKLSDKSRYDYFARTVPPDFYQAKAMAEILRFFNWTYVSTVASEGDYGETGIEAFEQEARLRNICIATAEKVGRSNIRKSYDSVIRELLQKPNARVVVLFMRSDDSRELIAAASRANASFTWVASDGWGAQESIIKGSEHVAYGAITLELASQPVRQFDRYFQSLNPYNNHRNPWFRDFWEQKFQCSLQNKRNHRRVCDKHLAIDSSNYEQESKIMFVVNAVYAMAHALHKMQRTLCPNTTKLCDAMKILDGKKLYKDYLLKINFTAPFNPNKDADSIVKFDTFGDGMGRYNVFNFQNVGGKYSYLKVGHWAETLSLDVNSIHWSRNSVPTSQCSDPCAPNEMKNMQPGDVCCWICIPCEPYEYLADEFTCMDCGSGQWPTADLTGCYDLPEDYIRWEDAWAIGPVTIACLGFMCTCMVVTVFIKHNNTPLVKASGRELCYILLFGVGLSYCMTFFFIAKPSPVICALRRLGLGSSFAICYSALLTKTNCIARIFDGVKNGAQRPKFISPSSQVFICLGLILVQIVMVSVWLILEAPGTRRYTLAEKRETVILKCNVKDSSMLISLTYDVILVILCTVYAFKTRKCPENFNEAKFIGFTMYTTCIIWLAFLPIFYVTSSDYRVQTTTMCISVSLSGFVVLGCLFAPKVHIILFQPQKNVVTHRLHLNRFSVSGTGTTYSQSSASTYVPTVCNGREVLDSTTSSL

| SMILES | Ki (Glutamate NMDA receptor) | EC50 [1] | other results |
| --- | --- | --- | --- |
| N[C@@H](CCc1nsnc1O)C(=O)O | > 100 µM | – | – |
| N[C@H](CCc1nsnc1O)C(=O)O | > 100 µM | – | – |
| N[C@@]1(C(=O)O)C[C@@H]1CC(=O)O (relative stereo) | 77 µM | 200 µM | Ki [2]: 200 µM |
| N[C@@]1(C(=O)O)C[C@H]1CC(=O)O (relative stereo) | 72 µM | > 1000 µM | – |
| N[C@]1(C(=O)O)C[C@H]1Cc1nsnc1O (relative stereo) | 19 µM | – | – |
| N=C(N)NCCC[C@H](N)C(=O)O [ARGININE] | – | – | EC50 [3]: 284 µM |
| N[C@@H](CCC(=O)O)C(=O)O [GLUTAMIC ACID] | – | 0.06 µM | EC50 [4]: 1180 µM; Ki [5]: 1170 µM; Ki [2]: 0.0575 µM |
